From US20130012506A1 (priority 2010, published 2013)
In brackets after ≈: the same amount, converted by molar mass. Where two headings read alike, the source gives them in different places.

Assays:
[1] = test system: Staphylococcus aureus, S. epidermis, S. capitis, S. xylosus, Micrococcus luteus, Listeria innocua, Lactobacillus gallinarum, group G Streptococcus …; assay: Antimicrobial spectrum on clinical isolates, Gram-positive; format: cell-based, Gram-positive bacteria
[2] = test system: seven cell lines derived from different body tissue; assay: Cytotoxicity assay on a panel of seven cell lines; format: cell-based; settings: all tested cell lines, 5 days of co-incubation
Protocol: (§1) In order to address compound toxicity, seven cell lines originating from different body tissues were cultivated in the presence of 3-fold dilutions of compounds starting from 100 μM. After 5 days of culture, cell viability was assessed by the resazurin test. Briefly, cells were incubated with 10 μg/mL of resazurin (Sigma-Aldrich St. Louis, Mo.) for 4 h at 37° C. under 5% CO2. Resofurin fluorescence (RFU) was measured as indicated above. Percentage of toxicity on cells was calculated as follows: Cytotoxicity (%)=(RFUDMSO−RFUBlank)−(RFUcompound−RFUblank)/(RFUDMSO−RFUBlank)×100. Percentage of cytotoxicity was plotted against compound concentration and the minimal toxic concentration (MTC50) was determined by non-linear regression analysis as the lowest compound concentration where fifty percent toxicity was observed on the corresponding cell line.
(§2) To address the issue of toxicity, compound 133 was tested on a panel of seven cell lines derived from different body tissue. Cells were incubated with increasing amounts of compound and cell viability was assessed with resazurin after 5 days of co-incubation. Percentage of cytotoxicity was determined by taking as a reference the resofurin fluorescence measured by DMSO containing wells. The concentration where fifty percent of the cells died was defined as the Minimal Toxic Concentration (MTC50).

[3] = test system: M. tuberculosis H37Rv in human macrophages; format: cell-based, Mycobacterium tuberculosis
[4] = test system: Acinetobacter baumannii, Escherichia coli, Enterobacter cloacae, E. aerogenes, Klebsiella oxytoca, Pseudomonas aeruginosa, Salmonella enteridis, Vibrio mimicus; assay: Antimicrobial spectrum on clinical isolates, Gram-negative; format: cell-based, Gram-negative bacteria
M. smegmatis mc^2 155 = assay: MIC on fast growing mycobacteria; format: cell-based, Mycobacterium smegmatis
C. striatum, C. jeikeium = assay: Antimicrobial spectrum on clinical isolates, Corynebacterium; format: cell-based
Jurkat -T-cell = assay: Cytotoxicity assay (resazurin, 5 days); format: cell-based
Protocol: as §1, §2

MRC5- Lung = assay: Cytotoxicity assay (resazurin, 5 days); format: cell-based; settings: MRC5, 5 days
Protocol: as §1, §2

SK-N-SH -Brain = assay: Cytotoxicity assay (resazurin, 5 days); format: cell-based
Protocol: as §1, §2

HepG2-Hepatocytes = assay: Cytotoxicity assay (resazurin, 5 days); format: cell-based; settings: HepG2, 5 days
Protocol: as §1, §2

HEK293- Kidney = assay: Cytotoxicity assay (resazurin, 5 days); format: cell-based; settings: HEK293, 5 days
Protocol: as §1, §2

BJ- Skin = assay: Cytotoxicity assay (resazurin, 5 days); format: cell-based
Protocol: as §1, §2

THP-1 - Monocytes = assay: Cytotoxicity assay (resazurin, 5 days); format: cell-based; settings: THP-1, 5 days
Protocol: as §1, §2

[5] = test system: M. tuberculosis H37Rv-GFP inside Raw264.7 macrophages; assay: in vitro; settings: mouse
M. tuberculosis H37Rv [6] = assay: MIC on laboratory strain, in vitro bacterial growth assay; format: cell-based; settings: Mycobacterium tuberculosis
Primary BMDM = assay: Cytotoxicity assay (resazurin, 5 days)
M. tuberculosis H37Ra = assay: MIC on laboratory strain, in vitro bacterial growth assay; format: cell-based; settings: Mycobacterium tuberculosis
[7] = test system: M. tuberculosis H37Rv in mouse macrophages; assay: CFU determination in infected mouse macrophages; format: cell-based, Mycobacterium tuberculosis; settings: mouse cells, seven days after infection
BCG Pasteur-Tokyo = assay: microbe, parasite or virus in culture; format: cell-based; settings: Mycobacterium tuberculosis variant bovis BCG
[8] = test system: Primary human macrophages; assay: Cytotoxicity assay (resazurin, 5 days)
[9] = test system: Candida albicans, C. glabrata, C. parapsilosis; assay: Antimicrobial spectrum on clinical isolates, Fungi; format: cell-based
[10] = test system: M. tuberculosis clinical isolates; format: cell-based, Mycobacterium tuberculosis
[11] = test system: M. tuberculosis H37Rv-GFP; assay: in vitro; settings: Mycobacterium tuberculosis
[12] = test system: M. tuberculosis H37Rv-GFP inside Raw264.7 macrophages; assay: microbe, parasite or virus in culture; settings: Mycobacterium tuberculosis, 120 h, read-out: minimal inhibitory concentration (MIC)
[13] = test system: M. tuberculosis H37Rv-GFP; assay: microbe, parasite or virus in culture; settings: Mycobacterium tuberculosis, read-out: minimal inhibitory concentration (MIC)
[14] = test system: M. tuberculosis H37Rv-GFP inside Raw264.7 macrophages
[15] = test system: M. tuberculosis in primary macrophages; format: cell-based, Mycobacterium tuberculosis
M. tuberculosis H37Rv [16] = assay: Bacteria killing activity by CFU counting, aerobic incubation; format: cell-based, Mycobacterium tuberculosis
Protocol: FIG. 8 illustrates the colony forming units (CFUs) recovered from macrophages at different time points after infection with M. tuberculosis H37Rv. Cells were infected and treated with the indicated amount of pyridopyrimidione compound 71 (4 to 20 μM);
The bacteria killing activity of compound 71 was determined using the CFU counting method. Two-fold serial dilutions of compound 71 were incubated aerobically with H37Rv for 21 days at 37° C.

COC(=O)c1ccc(Nc2nc3c(OC)cccn3c(=O)c2CO)nc1
melting point: 231 to 232 °C (dec.)

CNC(=O)c1c(Nc2ccc(F)c(Cl)c2)nc2c(OC)cccn2c1=O
melting point: 218 °C (dec.)

Cc1cccn2c(=O)c(C=O)c(Nc3cccc(Cl)c3)nc12 [compound 133, 2-(3-Chlorophenylamino)-9-methyl-4-oxo-4H-pyrido[1,2-a]pyrimidine-3-carbaldehyde]
Antibacterial activity & Specificity [1]: NE (NE: No effect up to 100 μg/mL equivalent to 320 μM)
cytotoxicity (Minimal Toxic Concentration, MTC50) [2]: > 100 µM
decrease in the number of CFUs [3]: ten-fold decrease in the number of CFUs
Antibacterial activity & Specificity [4]: NE (NE: No effect up to 100 μg/mL equivalent to 320 μM)
MIC (M. smegmatis mc^2 155): no effect
MIC (M. smegmatis mc^2 155; Mycolicibacterium smegmatis, MC^2155, read-out: MIC): > 100 µM
Antibacterial activity & Specificity (C. striatum, C. jeikeium): NE (NE: No effect up to 100 μg/mL equivalent to 320 μM)
Range of MTC50 (Jurkat -T-cell): >100 µM
Range of MTC50 (MRC5- Lung): >100 µM
Range of MTC50 (SK-N-SH -Brain): >100 µM
Range of MTC50 (HepG2-Hepatocytes): >100 µM
Range of MTC50 (HEK293- Kidney): >100 µM
Range of MTC50 (BJ- Skin): >100 µM
Range of MTC50 (THP-1 - Monocytes): >100 µM
selectivity ratio [5]: > 50
MIC (M. tuberculosis H37Rv [6]): 2 µM (≈ 0.627 µg/mL)
Range of MTC50 (Primary BMDM): >100 µM
MIC (M. tuberculosis H37Ra): 2 µM (≈ 0.627 µg/mL)
decrease in the number of CFUs [7]: ten-fold decrease in the number of CFUs
MIC (BCG Pasteur-Tokyo): 2 µM (≈ 0.627 µg/mL)
Range of MTC50 [8]: >100 µM
Antibacterial activity & Specificity [9]: NE (NE: No effect up to 100 μg/mL equivalent to 320 μM)
Range of MICs for multiple strains (μM) ([10]; Drug Sensitive, Tissue, 2 isolates): 2.5-5^ μM
Range of MICs for multiple strains ([10]; INH^R RIF^R Strep^R, Sputum, 3 isolates): 0.3 to 1.2 µM
Range of MICs for multiple strains ([10]; INH^R RIF^R Strep^R, Tissue, 1 isolate): 1.2 µM
Range of MICs for multiple strains ([10]; MDR, Sputum, 3 isolates): 0.3 to 1.2 µM
Range of MICs for multiple strains ([10]; MDR, Tissue, 1 isolate): 1.2 µM
Range of MICs for multiple strains ([10]; RIF^R, Sputum, 1 isolate): 2.5 µM
Range of MICs for multiple strains ([10]; RIF^R, Tissue, 1 isolate): 1.2 µM
Range of MICs for multiple strains ([10]; XDR, Sputum, 4 isolates): 0.6 to 2.5 µM
Range of MICs for multiple strains (μM) ([10]; XDR, Tissue, 5 isolates): 0.3-5^ μM
selectivity ratio [11]: > 50

NNC(=O)c1ccncc1 [INH, isoniazid]
MIC [12]: 0.1 µg/mL (≈ 0.729 µM)
MIC [13]: 0.1 µg/mL (≈ 0.729 µM)
Calculated MICs from the image based quantification of the infection ratio [14]: 0.16 ± 0.05 µg/mL
cells that appear to be infected [14]: 10%

COc1cccn2c(=O)c(Br)c(Nc3ccc4ncccc4c3)nc12
melting point: 248 to 249 °C

Cc1cccn2c(=O)c(CO)c(Nc3cccc(Cl)c3)nc12 [compound 232, 2-(3-Chlorophenylamino)-3-(hydroxymethyl)-9-methyl-4H-pyrido[1,2-a]pyrimidin-4-one]
decrease in the number of CFUs [3]: ten-fold decrease in the number of CFUs
decrease in the number of CFUs [7]: ten-fold decrease in the number of CFUs
bacterial load and host cell abundance [15]: harbored fewer bacteria compared to DMSO control and were more abundant

COc1cccn2c(=O)c(CO)c(Nc3ccc4ncccc4c3)nc12 [compound 71, 3-(Hydroxymethyl)-9-methoxy-2-(quinolin-6-ylamino)-4H-pyrido[1,2-a]pyrimidin-4-one]
growth of M. tuberculosis (CFU) (M. tuberculosis H37Rv [16]; 0.04 to 20 μM, H37Rv, 21 days at 37° C.): strongly inhibited the growth of M. tuberculosis
bacteria killing activity (CFU) (M. tuberculosis H37Rv [16]; after 2 days of incubation): fast bacteria killing activity even at the lowest concentration

Cn1cnc2ccc(Nc3nc4c(F)cccn4c(=O)c3CO)cc21
melting point: 209 °C (dec.)

COc1cccn2c(=O)c(CO)c(Nc3ccc(F)c(F)c3)nc12
melting point: 231 °C (dec.)

CO[C@H]1/C=C/O[C@@]2(C)Oc3c(C)c(O)c4c(O)c(c(/C=N/N5CCN(C)CC5)c(O)c4c3C2=O)NC(=O)/C(C)=C\C=C\[C@H](C)[C@H](O)[C@@H](C)[C@@H](O)[C@@H](C)[C@H](OC(C)=O)[C@@H]1C [rifampin]
Calculated MICs from the image based quantification of the infection ratio [14]: 2.4 ± 1.3 µg/mL
cells that appear to be infected [14]: 10%
